Values quoted from earlier work in publication PMC3325405 (Amino Acids, 2011).

Target: Klebsiella aerogenes enzyme (urease)
Details: read-out: K i, Klebsiella aerogenes urease; ref Todd 1989

Ki: 2.6 µM
Compound: CC(=O)NO [AHA, acetohydroxamic acid]
